Data taken from US9879303B2, “Chromogenic glucuronidase substrates and uses” (Glycosynth Limited, priority 2013, dated 2018).
Where a name gives a salt, the structure may show the parent alone.

Assays:
[1] = system: 20 different microbial strains; test: specificity of action on 20 different microbial strains, Columbia agar; type: cell-based; conditions: 19 organisms other than E. coli NCTC 10418, FAC
Description: (§1) The specificity of action of both DHN-β-D-glucuronide (2) and of catechol-β-D-glucuronide (1), as well as their 6′-methyl esters (4 and 6), was first established using multi-point inoculation of 20 different microbial strains onto Columbia agar plates. The strains chosen represented species commonly encountered in diagnostic microbiology. The substrates were incorporated into the agar at a concentration of 300 mg/L with an iron salt, ferric ammonium citrate, (hereinafter known as FAC) at 500 mg/L. The plates were incubated for 18 h at 37° C. in air.
Of the 20 strains, only the β-D-glucuronidase-positive strain of E. coli, (E. coli NCTC 10418) was able to hydrolyse the substrates. This organism generated diffuse, purple-brown colonies with the catechol substrates and diffuse, maroon colonies with the DHN substrates. Essentially identical results were obtained if other iron salts (e.g. iron(II) gluconate, iron(II) acetate, iron(II) citrate, iron(II) acetylacetonate and iron(III) acetylacetonate) were substituted in place of FAC. The iron compound can be either iron(II) (i.e. ferrous) or iron(III) (i.e. ferric). Both types of compound work equally, and the coloured chelates were still formed when the plates were incubated under anaerobic conditions, which is another useful feature of the present invention. The substrates may also be autoclaved at 116° C. for 20 minutes with no decrease in sensitivity. It will be appreciated that the media and the reagents will all contain at least traces of iron compounds. […] In contrast, supplementing the growth media with compounds of other metals gave either no coloured endpoint or an extremely poor one to visualise. […] Therefore the latter substrates were preferred for more extensive evaluation. […] For convenience, further evaluation of catechol-β-D-glucuronide and DHN-β-D-glucuronide was conducted with the CHA salt forms only (1 and 2b). In the present invention the counter ion of the glucuronide is not considered to be of special significance. For acidic enzyme substrates (including glucuronides), a variety of different counter ions, both inorganic and organic, are well known in the prior art.

[2] = system: Klebsiella pneumoniae NCTC 9528; test: multi-point inoculation onto Columbia agar plates; also: key: ++ means strong colour; + means less colour than ++; − means no colour; type: cell-based; conditions: substrate 300 mg/L, FAC 500 mg/L, 18 h at 37° C. in air
Description: as §1

[3] = system: Escherichia coli NCTC 10418; test: multi-point inoculation onto Columbia agar plates; type: cell-based; conditions: for intensity of the colour / performance compared with the other substrates: comparison in words, Columbia agar with FAC; for colour: substrate 300 mg/L, FAC 500 mg/L, 18 h at 37° C. in air
Description: as §1

[4] = system: Salmonella typhimurium NCTC 74; test: multi-point inoculation onto Columbia agar plates; also: key: ++ means strong colour; + means less colour than ++; − means no colour; type: cell-based; conditions: substrate 300 mg/L, FAC 500 mg/L, 18 h at 37° C. in air
Description: as §1

[5] = system: Staphylococcus aureus NCTC 6571; test: multi-point inoculation onto Columbia agar plates; also: key: ++ means strong colour; + means less colour than ++; − means no colour; type: cell-based; conditions: substrate 300 mg/L, FAC 500 mg/L, 18 h at 37° C. in air
Description: as §1

[6] = system: Burkholderia cepacia NCTC 10931; test: multi-point inoculation onto Columbia agar plates; type: cell-based; conditions: substrate 300 mg/L, FAC 500 mg/L, 18 h at 37° C. in air
Description: as §1

[7] = system: Serratia marcescens NCTC 10211; test: multi-point inoculation onto Columbia agar plates; also: key: ++ means strong colour; + means less colour than ++; − means no colour; type: cell-based; conditions: substrate 300 mg/L, FAC 500 mg/L, 18 h at 37° C. in air
Description: as §1

[8] = system: Enterobacter cloacae NCTC 11936; test: multi-point inoculation onto Columbia agar plates; also: key: ++ means strong colour; + means less colour than ++; − means no colour; type: cell-based; conditions: substrate 300 mg/L, FAC 500 mg/L, 18 h at 37° C. in air
Description: as §1

[9] = system: Enterococcus faecalis NCTC 775; test: multi-point inoculation onto Columbia agar plates; also: key: ++ means strong colour; + means less colour than ++; − means no colour; type: cell-based; conditions: substrate 300 mg/L, FAC 500 mg/L, 18 h at 37° C. in air
Description: as §1

[10] = system: Pseudomonas aeruginosa NCTC 10662; test: multi-point inoculation onto Columbia agar plates; also: key: ++ means strong colour; + means less colour than ++; − means no colour; type: cell-based; conditions: substrate 300 mg/L, FAC 500 mg/L, 18 h at 37° C. in air
Description: as §1

[11] = system: Enterococcus faecium NCTC 7171; test: multi-point inoculation onto Columbia agar plates; also: key: ++ means strong colour; + means less colour than ++; − means no colour; type: cell-based; conditions: substrate 300 mg/L, FAC 500 mg/L, 18 h at 37° C. in air
Description: as §1

[12] = system: Providencia rettgeri NCTC 7475; test: multi-point inoculation onto Columbia agar plates; also: key: ++ means strong colour; + means less colour than ++; − means no colour; type: cell-based; conditions: substrate 300 mg/L, FAC 500 mg/L, 18 h at 37° C. in air
Description: as §1

[13] = system: Candida glabrata NCPF 3943; test: multi-point inoculation onto Columbia agar plates; also: key: ++ means strong colour; + means less colour than ++; − means no colour; type: cell-based; conditions: substrate 300 mg/L, FAC 500 mg/L, 18 h at 37° C. in air
Description: as §1

[14] = system: Acinetobacter baumanaii NCTC 19606; test: multi-point inoculation onto Columbia agar plates; also: key: ++ means strong colour; + means less colour than ++; − means no colour; type: cell-based; conditions: substrate 300 mg/L, FAC 500 mg/L, 18 h at 37° C. in air
Description: as §1

[15] = system: Yersinia enterocolitica NCTC 11176; test: multi-point inoculation onto Columbia agar plates; type: cell-based; conditions: substrate 300 mg/L, FAC 500 mg/L, 18 h at 37° C. in air
Description: as §1

[16] = system: Streptococcus pyogenes NCTC 8306; test: multi-point inoculation onto Columbia agar plates; also: key: ++ means strong colour; + means less colour than ++; − means no colour; type: cell-based; conditions: substrate 300 mg/L, FAC 500 mg/L, 18 h at 37° C. in air
Description: as §1

[17] = system: Candida albicans ATCC 90028; test: multi-point inoculation onto Columbia agar plates; also: key: ++ means strong colour; + means less colour than ++; − means no colour; type: cell-based; conditions: substrate 300 mg/L, FAC 500 mg/L, 18 h at 37° C. in air
Description: as §1

[18] = system: Staphylococcus epidermidis NCTC 11047; test: multi-point inoculation onto Columbia agar plates; also: key: ++ means strong colour; + means less colour than ++; − means no colour; type: cell-based; conditions: substrate 300 mg/L, FAC 500 mg/L, 18 h at 37° C. in air
Description: as §1

[19] = system: Staphylococcus aureus (MRSA) NCTC 11939; test: multi-point inoculation onto Columbia agar plates; also: key: ++ means strong colour; + means less colour than ++; − means no colour; type: cell-based; conditions: substrate 300 mg/L, FAC 500 mg/L, 18 h at 37° C. in air
Description: as §1

[20] = system: Bacillus subtilis NCTC 9372; test: multi-point inoculation onto Columbia agar plates; also: key: ++ means strong colour; + means less colour than ++; − means no colour; type: cell-based; conditions: substrate 300 mg/L, FAC 500 mg/L, 18 h at 37° C. in air
Description: as §1

[21] = system: Listeria monocytogenes NCTC 11994; test: multi-point inoculation onto Columbia agar plates; also: key: ++ means strong colour; + means less colour than ++; − means no colour; type: cell-based; conditions: substrate 300 mg/L, FAC 500 mg/L, 18 h at 37° C. in air
Description: as §1

COC(=O)C1OC(Oc2cc3ccccc3cc2O)C(O)C(O)C1O [Compound 6, DHN-β-D-Glucuronide-6′-Methyl Ester]
result with the other 19 organisms [1]: uniformly negative
colour [2]: −
intensity of the colour / performance compared with the other substrates [3]: noticeably inferior
colour [3]: +
colour [4]: −
colour [5]: −
colour [6]: −
colour [7]: −
colour [8]: −
colour [9]: −
colour [10]: −
colour [11]: −
colour [12]: −
colour [13]: −
colour [14]: −
colour [15]: −
colour [16]: −
colour [17]: −
colour [18]: −
colour [19]: −
colour [20]: −
colour [21]: −

O=C(O)C1OC(Oc2cc3ccccc3cc2O)C(O)C(O)C1O (as salt: salt) [Compound 2b, DHN-β-D-Glucuronide CHA Salt]
melting point: 223 to 224 °C

COC(=O)C1OC(Oc2cc3ccccc3cc2O)C(OC(C)=O)C(OC(C)=O)C1OC(C)=O [Compound 5, DHN-2′,3′,4′-tri-O-acetyl-β-D-glucuronide-6-methyl ester]
melting point: 191 to 192 °C

COC(=O)C1OC(Oc2ccccc2O)C(O)C(O)C1O [Compound 4, Catechol β-D-Glucuronide-6′-Methyl Ester]
result with the other 19 organisms [1]: uniformly negative
colour [2]: −
intensity of the colour / performance compared with the other substrates [3]: noticeably inferior
colour [3]: +
colour [4]: −
colour [5]: −
colour [6]: −
colour [7]: −
colour [8]: −
colour [9]: −
colour [10]: −
colour [11]: −
colour [12]: −
colour [13]: −
colour [14]: −
colour [15]: −
colour [16]: −
colour [17]: −
colour [18]: −
colour [19]: −
colour [20]: −
colour [21]: −

COC(=O)C1OC(Oc2ccccc2O)C(OC(C)=O)C(OC(C)=O)C1OC(C)=O [Compound 3, Catechol 2′,3′,4′,-tri-O-acetyl β-D-glucuronide-6′-methyl ester]
melting point: 128 to 130 °C

O=C(O)C1OC(Oc2ccccc2O)C(O)C(O)C1O (as salt: salt) [Compound 1, Catechol β-D-Glucuronide CHA Salt]
melting point: 208 to 210 °C

O=C([O-])C1OC(Oc2cc3ccccc3cc2O)C(O)C(O)C1O.[Na+] [Compound 2a, DHN-β-D-Glucuronide Sodium Salt]
result with the other 19 organisms [1]: uniformly negative
colour [2]: −
intensity of the colour / performance compared with the other substrates [3]: performed the same as its CHA salt (2b)
colour [3]: ++
colour [4]: −
colour [5]: −
colour [6]: −
colour [7]: −
colour [8]: −
colour [9]: −
colour [10]: −
colour [11]: −
colour [12]: −
colour [13]: −
colour [14]: −
colour [15]: −
colour [16]: −
colour [17]: −
colour [18]: −
colour [19]: −
colour [20]: −
colour [21]: −
melting point: 53 to 55 °C
